# Assays:
# Format in all cases: functional
# Spodoptera exigua = assay: Insecticidal activity against beet armyworm assessed as mortality per larva after 5 days
# Myzus persicae = assay: Insecticidal activity against green peach aphid assessed as count of nonwinged stage live aphid after 72 hrs with 24 hrs of photoperiod prior to grading
# Bemisia tabaci = assay: Insecticidal activity against sweet potato whitefly assessed as larval survival after 13 days; conditions: 312 h
# Heliothis virescens = assay: Insecticidal activity against tobacco budworm assessed per larva
# Aphis gossypii = assay: Insecticidal activity against cotton aphid assessed as count of nonwinged stage live aphid after 72 hrs with 24 hrs of photoperiod prior to grading
# Trichoplusia ni = assay: Insecticidal activity against cabbage looper assessed as mortality per larva after 5 days
# Tetranychus urticae = assay: Insecticidal activity against two-spotted spinder mites assessed as count of live mites after 4 days with low light condition; conditions: 96 h
Structure (SMILES),LC50 (Spodoptera exigua),LC50 (Myzus persicae),LC50 (Bemisia tabaci),LC50 (Heliothis virescens),LC50 (Aphis gossypii),LC50 (Trichoplusia ni),LC50 (Tetranychus urticae)
CO[C@@H]1[C@@H](OC)[C@H](C)O[C@@H](O[C@H]2C[C@H]3[C@@H]4C=C5C(=O)[C@H](C)[C@@H](O[C@H]6CC[C@H](N(C)C)[C@@H](C)O6)CCC[C@H](C6CCC6)OC(=O)C[C@H]5[C@@H]4C=C(C)[C@@H]3C2)[C@@H]1OC,0.385 µg,> 50 µg/mL,13.5 µg/mL,0.016 µg,15 µg/mL,0.01 µg,
"CO[C@@H]1[C@@H](OC)[C@H](C)O[C@@H](O[C@@H]2C[C@H]3CC[C@@H]4[C@@H](C=C5C(=O)[C@H](C)[C@@H](O[C@H]6CC[C@H](N(C)C)[C@@H](C)O6)CCC[C@H](C6CCC6)OC(=O)C[C@H]54)[C@@H]3C2)[C@@H]1OC [5,6-DIHYDRO-21-DESETHYL-21-CYCLOBUTYLSPINOSYN A]",0.134 µg,> 50 µg/mL,0.7 µg/mL,0.02 µg,1.7 µg/mL,0.013 µg,
CO[C@@H]1[C@@H](OC)[C@H](C)O[C@@H](O[C@H]2C[C@H]3[C@@H]4C=C5C(=O)[C@H](C)[C@@H](O[C@H]6CC[C@H](N(C)C)[C@@H](C)O6)CCC[C@H](C6CCC6)OC(=O)C[C@H]5[C@@H]4C=C[C@@H]3C2)[C@@H]1OC [21-DESETHYL-21-CYCLOBUTYLSPINOSYNS A],>1 µg,> 50 µg/mL,55 µg/mL,0.013 µg,3 µg/mL,0.124 µg,> 50 µg/mL
CO[C@@H]1[C@@H](OC)[C@H](C)O[C@@H](O[C@H]2C[C@H]3[C@@H]4C=C5C(=O)[C@H](C)[C@@H](O[C@H]6CC[C@H](N(C)C)[C@@H](C)O6)CCC[C@H](C6CC6)OC(=O)C[C@H]5[C@@H]4C=C[C@@H]3C2)[C@@H]1OC [21-DESETHYL-21-CYCLOPROPYLSPINOSYNS A],1 µg,> 50 µg/mL,> 50 µg/mL,0.125 µg,46 µg/mL,0.157 µg,> 50 µg/mL
CO[C@@H]1[C@@H](OC)[C@H](C)O[C@@H](O[C@H]2C[C@H]3[C@@H]4C=C5C(=O)[C@H](C)[C@@H](O[C@H]6CC[C@H](N(C)C)[C@@H](C)O6)CCC[C@H](C(C)C)OC(=O)C[C@H]5[C@@H]4C=C[C@@H]3C2)[C@@H]1OC [21-DESETHYL-21-ISOPROPYLSPINOSYN A],0.123 µg,,,0.02 µg,,0.022 µg,
CCC[C@H]1CCC[C@H](O[C@H]2CC[C@H](N(C)C)[C@@H](C)O2)[C@@H](C)C(=O)C2=C[C@@H]3[C@@H](C=C[C@@H]4C[C@@H](O[C@@H]5O[C@@H](C)[C@H](OC)[C@@H](OC)[C@H]5OC)C[C@@H]34)[C@@H]2CC(=O)O1 [21-DESETHYL-21-N-PROPYLSPINOSYN A],0.031 µg,> 50 µg/mL,> 50 µg/mL,0.025 µg,27.3 µg/mL,0.004 µg,< 50 µg/mL
CC[C@H]1CCC[C@H](O[C@H]2CC[C@H](N(C)C)[C@@H](C)O2)[C@@H](C)C(=O)C2=C[C@@H]3[C@@H](C=C[C@@H]4C[C@@H](O[C@@H]5O[C@@H](C)[C@H](OC)[C@@H](OC)[C@H]5OC)C[C@@H]34)[C@@H]2CC(=O)O1 [SPINOSYN A],0.63 µg,50 µg/mL,20 µg/mL,0.03 µg,65 µg/mL,0.03 µg,5.3 µg/mL
CC[C@H]1CCC[C@H](O[C@H]2CC[C@H](N(C)C)[C@@H](C)O2)[C@@H](C)C(=O)C2=C[C@@H]3[C@@H](C=C(C)[C@@H]4C[C@@H](O[C@@H]5O[C@@H](C)[C@H](OC)[C@@H](OC)[C@H]5OC)C[C@@H]34)[C@@H]2CC(=O)O1 [SPINOSYN D],,50 µg/mL,1.7 µg/mL,,50 µg/mL,,19 µg/mL
CO[C@@H]1[C@@H](OC)[C@H](C)O[C@@H](O[C@H]2C[C@H]3[C@@H]4C=C5C(=O)[C@H](C)[C@@H](O[C@H]6CC[C@H](N(C)C)[C@@H](C)O6)CCC[C@H](C)OC(=O)C[C@H]5[C@@H]4C=C[C@@H]3C2)[C@@H]1OC [SPINOSYN E],,> 50 µg/mL,3.9 µg/mL,,> 50 µg/mL,,10 µg/mL
